{"source": "paper PMC12691742", "about": "“Anti-Cancer Outcome of Glucocorticoid Receptor Transrepression by Synephrine Derivatives in Hematological Malignancies” (International Journal of Molecular Sciences, 2025)", "system": "NF-kB activity in K562 and Granta cells", "assay": "NF-kB.Luc reporter assay, positive control", "assay_type": "cell-based", "conditions": "TPA 5 ng/mL or 10 ng/mL (method), 5 h", "protocol": "We analyzed GR TR function using an NF-kB.Luc reporter assay with the irritating inflammatory agent phorbol 13-acetate 12-myristate (TPA) as an inducer of NF-kB signaling and positive control.\nFigure 4 Effects of synephrine derivatives on GR transrepression in Granta lymphoma and K562 leukemia cells. (A) K562 and Granta cells stably infected with the lentiviruses bearing the NF-kB luciferase reporter. Cells were incubated for 5 h with the solvent (control), TPA (5 ng/mL), 4S-C2 (10 µM), 8S-E3 (10 µM), 10S-E2 (1 µM), or 13S-G2 (1 µM). Luciferase activity was determined as described in the Materials and Methods section. (B) IL1-α and IL6 mRNA expression in K562 and Granta cells. […] The mean ± SD was calculated for three individual samples/condition (n = 3). […]\nLentiviral stocks were generated using the lentiviral expression vector NF-kB. […] The infection efficiency exceeded 90% (tracked by GFP fluorescence).\nCells (10^4 cells/well in a 24-well plate), stably expressing Firefly Luciferase under the NF-kB promoter, were treated for 5 h with TPA (12-O-tetradecanoylphorbol-13-acetate, Boston, MA, USA, 10 ng/mL), 4S-C2 (10 µM), 8S-E3 (10 µM), 10S-E2 (1 µM), 13S-G2 (1 µM), or the vehicle. Luciferase activity was measured as described using a commercial Luciferase Assay (“Promega”, Madison, WI, USA) and Luminometer TD 20/20 (“Turner Design Instruments”, San Jose, CA, USA). […]", "data": [{"smiles": "CCCCCCCCCCCCCC(=O)O[C@@H]1[C@@H](C)[C@@]2(O)[C@@H](C=C(CO)C[C@]3(O)C(=O)C(C)=C[C@@H]23)[C@@H]2C(C)(C)[C@]12OC(C)=O", "note": "[TPA, 12-O-tetradecanoylphorbol-13-acetate]", "values": [{"measurement": "NF-kB activation", "value": "5-9 fold"}]}]}
